Source: patent US11584747B2, “Substituted pyridopyrimidinonyl compounds useful as T cell activators” (BRISTOL-MYERS SQUIBB COMPANY, priority 2019, dated 2023)
Read-outs that look alike come from different tables or passages of the source.

Key:
[1] = test system: human venous whole blood (IFN-γ); assay: Human whole blood IFN-γ assay; assay type: cell-based; details: human whole blood, anti-CD3 plus anti-CD28 stimulation, 24 hours, read-out: IFN-γ Whole Blood EC50
Procedure: Human venous whole blood (22.5 μL per well), obtained from healthy donors, was pre-treated with compounds for one hour at 37° C. in a humidified 95% air/5% CO2 incubator. The blood was stimulated with 2.5 μL anti-human CD3 and anti-CD28 mAb at a final concentration of 1 μg/mL each for 24 hours at 37° C. IFN-γ in the supernatants was measured using AlphLISA kit (Cat #AL217).

whole blood (pERK) = assay: pERK Whole Blood; assay type: cell-based
human DGKα = human DGKα (Homo sapiens (Human), UniProt P23743); assay: DGKα ADPGLO assay (detergent/lipid micelle substrate); assay type: biochemical; details: ADPGLO assay; read-out: DGK alpha ADPGLO IC50
Procedure: DGK Alpha ADPGLO (Truncated) IC50 (uM)
The detergent/lipid micelle was prepared by combining 15 g phosphatidylserine (Avanti 840035P) and 1 g diacylglycerol (8008110) and dissolving into 150 mL chloroform in a 2 L round bottom flask. Chloroform was removed under high vacuum by rotary evaporation. […] The lipid/detergent solution was split into 5 mL aliquots and stored at −80° C.

human DGKζ = human DGKζ (Homo sapiens (Human), UniProt Q13574); assay: DGKζ LIPGLO assay (extruded liposome substrate, ADP-Glo luminescence); assay type: biochemical; details: liposome (LIPGLO) assay; read-out: DGK zeta (liposome assay) IC50
Sequence of human DGKζ (Q13574 other isoform, or with tags, fused parts or gaps): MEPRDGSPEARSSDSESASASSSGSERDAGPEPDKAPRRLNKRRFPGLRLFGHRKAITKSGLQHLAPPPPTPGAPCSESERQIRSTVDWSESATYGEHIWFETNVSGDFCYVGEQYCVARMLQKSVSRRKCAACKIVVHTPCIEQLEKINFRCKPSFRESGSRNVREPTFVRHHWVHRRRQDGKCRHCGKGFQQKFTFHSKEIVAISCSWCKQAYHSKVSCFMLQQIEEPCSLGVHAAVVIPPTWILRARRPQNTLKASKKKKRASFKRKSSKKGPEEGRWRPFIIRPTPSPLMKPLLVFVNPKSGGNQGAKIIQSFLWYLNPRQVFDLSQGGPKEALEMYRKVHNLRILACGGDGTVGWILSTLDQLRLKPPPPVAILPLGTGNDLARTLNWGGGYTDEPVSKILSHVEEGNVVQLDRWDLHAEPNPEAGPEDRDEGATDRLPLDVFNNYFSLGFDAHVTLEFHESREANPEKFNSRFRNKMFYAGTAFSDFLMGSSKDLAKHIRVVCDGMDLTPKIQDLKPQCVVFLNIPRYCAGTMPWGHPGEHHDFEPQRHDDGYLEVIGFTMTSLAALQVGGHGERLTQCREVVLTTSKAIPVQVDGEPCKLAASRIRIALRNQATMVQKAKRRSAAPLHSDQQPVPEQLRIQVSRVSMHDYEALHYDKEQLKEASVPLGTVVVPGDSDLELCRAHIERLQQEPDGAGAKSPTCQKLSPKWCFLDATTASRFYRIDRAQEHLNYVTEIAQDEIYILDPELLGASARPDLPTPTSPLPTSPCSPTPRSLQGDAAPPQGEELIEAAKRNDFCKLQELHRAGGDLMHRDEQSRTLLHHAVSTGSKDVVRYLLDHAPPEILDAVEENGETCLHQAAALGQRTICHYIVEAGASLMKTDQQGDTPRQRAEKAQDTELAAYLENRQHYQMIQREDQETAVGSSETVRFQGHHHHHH

Sequence of human DGKα (P23743 whole entry, looked up, the tested form may be a part): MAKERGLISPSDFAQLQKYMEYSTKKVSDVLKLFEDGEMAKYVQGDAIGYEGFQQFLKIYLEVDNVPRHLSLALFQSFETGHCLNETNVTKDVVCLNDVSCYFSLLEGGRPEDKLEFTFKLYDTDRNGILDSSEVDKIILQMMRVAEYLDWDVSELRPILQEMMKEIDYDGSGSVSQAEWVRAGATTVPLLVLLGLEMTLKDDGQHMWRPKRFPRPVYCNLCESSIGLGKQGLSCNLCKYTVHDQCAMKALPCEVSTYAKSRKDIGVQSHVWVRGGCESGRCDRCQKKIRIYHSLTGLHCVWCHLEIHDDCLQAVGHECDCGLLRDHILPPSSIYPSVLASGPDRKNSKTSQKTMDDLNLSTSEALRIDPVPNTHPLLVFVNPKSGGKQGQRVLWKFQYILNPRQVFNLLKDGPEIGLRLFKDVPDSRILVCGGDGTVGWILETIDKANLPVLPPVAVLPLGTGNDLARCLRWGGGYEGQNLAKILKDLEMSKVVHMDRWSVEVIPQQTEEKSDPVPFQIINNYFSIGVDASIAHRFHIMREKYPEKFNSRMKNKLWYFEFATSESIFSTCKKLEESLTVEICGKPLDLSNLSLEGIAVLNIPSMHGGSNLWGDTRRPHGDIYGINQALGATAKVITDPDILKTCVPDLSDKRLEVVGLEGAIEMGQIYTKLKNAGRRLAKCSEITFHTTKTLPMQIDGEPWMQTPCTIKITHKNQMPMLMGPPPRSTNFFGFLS

| SMILES | EC50 ([1]; Homo sapiens, 24 h) [nM] | EC50 (whole blood (pERK)) [nM] | IC50 (human DGKα) [nM] | IC50 (human DGKζ) [nM] | EC50 [1] [nM] |
| --- | --- | --- | --- | --- | --- |
| CCC(c1nc(C2CC2)no1)N1C[C@H](CC)N(c2nc(=O)n(C)c3ccc(C#N)nc23)C[C@H]1CC (stereo partly drawn) [Example 363, 4-((2S,5R)-4-(1-(3-cyclopropyl-1,2,4-oxadiazol-5-yl)propyl)-2,5-diethylpiperazin-1-yl)-1-methyl-2-oxo-1,2-dihydropyrido[3,2-d]pyrimidine-6-carbonitrile] | 160 | 24 | 17 | 32 |  |
| CCC(c1ccc(OC)cc1)N1C[C@H](C)N(c2nc(=O)n(C)c3ccc(C#N)nc23)C[C@H]1CC (stereo partly drawn) [Example 305, 4-((2S,5R)-5-ethyl-4-(1-(4-methoxyphenyl)propyl)-2-methylpiperazin-1-yl)-1-methyl-2-oxo-1,2-dihydropyrido[3,2-d]pyrimidine-6-carbonitrile] |  | 3670 | 62 | 1400 | 11700 |
| CC[C@H]1CN(C(c2ccc(F)cc2)c2noc(C3CC3)n2)[C@H](CC)CN1c1nc(=O)n(C)c2ccc(C#N)nc12 (single isomer, unassigned) [Example 371] | 190 | 3320 | 13 | 100 |  |
| CC[C@H]1CN(C(C)c2ccc(C(F)(F)F)cc2)[C@H](CC)CN1c1nc(=O)n(C)c2ccc(OCCN(C)C)nc12 (stereo partly drawn) [Example 431, 4-((2S,5R)-2,5-diethyl-4-(1-(4-(trifluoromethyl)phenyl)ethyl)piperazin-1-yl)-6-(2-(dimethylamino)ethoxy)-1-methylpyrido[3,2-d]pyrimidin-2(1H)-one] | 20000 | 20000 | 250000 | 250000 |  |
| CCC(c1ccc(C(F)(F)F)cc1)N1C[C@H](CC)N(c2nc(=O)n(C)c3ccc(OC)nc23)C[C@H]1CC (stereo partly drawn) [Example 435, 4-((2S,5R)-2,5-diethyl-4-(1-(4-(trifluoromethyl)phenyl)propyl)piperazin-1-yl)-6-methoxy-1-methylpyrido[3,2-d]pyrimidin-2(1H)-one] |  | 7290 | 1900 | 5510 | 4160 |
| CCC(c1ccc(OC)cc1)N1C[C@H](C)N(c2nc(=O)n(C)c3ccc(C#N)nc23)C[C@H]1CC (stereo partly drawn) [Example 304, 4-((2S,5R)-5-ethyl-4-(1-(4-methoxyphenyl)propyl)-2-methylpiperazin-1-yl)-1-methyl-2-oxo-1,2-dihydropyrido[3,2-d]pyrimidine-6-carbonitrile] |  | 110 | 12 | 14 | 16 |
| CCC(c1ccc(OCC2CC2)cc1)N1C[C@H](C)N(c2nc(=O)n(C)c3ccc(C#N)nc23)C[C@H]1CC (stereo partly drawn) [Example 308, 4-((2S,5R)-4-(1-(4-(cyclopropylmethoxy)phenyl)propyl)-5-ethyl-2-methylpiperazin-1-yl)-1-methyl-2-oxo-1,2-dihydropyrido[3,2-d]pyrimidine-6-carbonitrile] |  | 890 | 62 | 39 | 34 |
| CC(c1ccc(CN2CCOC(C)(C)C2)cc1)N1C[C@H](C)N(c2nc(=O)n(C)c3ccc(C#N)nc23)C[C@H]1C (single isomer, unassigned) [Example 385] |  | 240 | 12 | 43 | 130 |
| CCC(c1ccc(OC(C)C)cc1)N1C[C@H](C)N(c2nc(=O)n(C)c3ccc(C#N)nc23)C[C@H]1CC (stereo partly drawn) [Example 333, 4-((2 S,5R)-5-ethyl-4-(1-(4-isopropoxyphenyl)propyl)-2-methylpiperazin-1-yl)-1-methyl-2-oxo-1,2-dihydropyrido[3,2-d]pyrimidine-6-carbonitrile] |  | 100 | 90 | 72 | 120 |
| CC(c1ccc(CN2CCC(F)(F)CC2)cc1)N1C[C@H](C)N(c2nc(=O)n(C)c3ccc(C#N)nc23)C[C@H]1C (stereo partly drawn) [Example 390, 4-((2S,5R)-4-(1-(4-((4,4-difluoropiperidin-1-yl)methyl)phenyl)ethyl)-2,5-dimethylpiperazin-1-yl)-1-methyl-2-oxo-1,2-dihydropyrido[3,2-d]pyrimidine-6-carbonitrile] |  | 20000 | 97 | 180 | 40 |
| CC[C@@H]1CN(c2nc(=O)n(C)c3ccc(C#N)nc23)[C@@H](C)CN1C(C)c1ccc(C2(C#N)CC2)cc1 (stereo partly drawn) [Example 325, 4-((2S,5R)-4-(1-(4-(1-cyanocyclopropyl)phenyl)ethyl)-5-ethyl-2-methylpiperazin-1-yl)-1-methyl-2-oxo-1,2-dihydropyrido[3,2-d]pyrimidine-6-carbonitrile] |  | 70 | 800 | 69 |  |
| [2H]C([2H])([2H])n1c(=O)nc(N2C[C@@H](CC)N(C(C)c3ccc(C(F)(F)F)cc3)C[C@@H]2C)c2nc(C#N)ccc21 (single isomer, unassigned) [Example 419] |  | 20000 | 33 | 55 |  |
| [2H]C([2H])([2H])n1c(=O)nc(N2C[C@@H](CC)N(C(C)c3ccc(C(F)(F)F)cc3)C[C@@H]2C)c2nc(Cl)ccc21 (single isomer, unassigned) [Example 417] |  | 20000 | 170 | 520 |  |
| CCC(c1ccc(C(F)(F)F)cc1)N1C[C@H](CC)N(c2nc(=O)[nH]c3ccc(C#N)nc23)C[C@H]1CC (stereo partly drawn) [Example 415, 4-((2S,5R)-2,5-diethyl-4-(1-(4-(trifluoromethyl)phenyl)propyl)piperazin-1-yl)-2-oxo-1,2-dihydropyrido[3,2-d]pyrimidine-6-carbonitrile] |  | 3440 | 3310 | 61900 |  |
| CC(c1ccc(C(F)(F)F)cc1)N1C[C@H](CO)N(c2nc(=O)n(C)c3ccc(C#N)nc23)C[C@H]1C (single isomer, unassigned) [Example 407] |  | 640 | 400 | 31000 |  |
| CCC(c1ccc(C2OCCO2)cc1)N1C[C@H](C)N(c2nc(=O)n(C)c3ccc(C#N)nc23)C[C@H]1CC (stereo partly drawn) [Example 331, 4-((2S,5R)-4-(1-(4-(1,3-dioxolan-2-yl)phenyl)propyl)-5-ethyl-2-methylpiperazin-1-yl)-1-methyl-2-oxo-1,2-dihydropyrido[3,2-d]pyrimidine-6-carbonitrile] |  | 940 | 38 | 33 |  |
| CCC(c1ccc(OCc2nccs2)cc1)N1C[C@H](C)N(c2nc(=O)n(C)c3ccc(C#N)nc23)C[C@H]1CC (stereo partly drawn) [Example 348, 4-((2S,5R)-5-ethyl-2-methyl-4-(1-(4-(thiazol-2-ylmethoxy)phenyl)propyl)piperazin-1-yl)-1-methyl-2-oxo-1,2-dihydropyrido[3,2-d]pyrimidine-6-carbonitrile] |  | 1950 | 61 | 45 |  |
| CCC(c1ccc(OCC2COC2)cc1)N1C[C@H](C)N(c2nc(=O)n(C)c3ccc(C#N)nc23)C[C@H]1CC (stereo partly drawn) [Example 341, 4-((2S,5R)-5-ethyl-2-methyl-4-(1-(4-(oxetan-3-ylmethoxy)phenyl)propyl)piperazin-1-yl)-1-methyl-2-oxo-1,2-dihydropyrido[3,2-d]pyrimidine-6-carbonitrile] |  | 2980 | 61 | 130 |  |
